Patent publication US20100234323A1, “Antimicrobial Acids and Salts” (priority 2006, published 2010)
Where “and” joins values, the source holds several entries; their conditions need not be identical. Identical values can stand only once.

Assays:
S. aureus ATCC 6538 = experiment: Antibacterial efficacy on treated polypropylene non-woven, modified AATCC-100; assay type: cell-based, Staphylococcus aureus
Method: (§1) A solution of Example 1 in a solvent (tetrahydrofurane and/or acetone) is prepared with a concentration of 1 or 2% of the compound of Example 1. This solution is sonicated for 1 min to ensure complete dissolution of the test acid compound. Then polypropylene non-woven (10×10 cm) is dipped into the solution (100 ml) and left under sonication for 1 min. The non-woven is taken out of the solution and dried on air at room temperature for some hours. This non-woven is then used for microbial testing as follows:
(§2) The efficacy of Example 1 is tested after application onto polypropylene non-woven material according to a modified AATCC-100 standard for assessing antibacterial activity on textiles. Overnight cultures of two test bacteria are contacted with the treated non-woven material by pipetting a diluted suspension onto the surface of the material. The non-woven is then incubated for 24 hours at 37° C., and then the cell count is determined by elution of the materials into a neutralizing medium, dilution series and plate count technique. As in the basic test for microbicidal activity (Example 6), Staphylococcus aureus is used as the gram+ and Escherichia coli as the gram-organism.
(§3) The results are given in tables (f) and (g) as cell count directly after inoculation and after 24 hours incubation time in comparison to an untreated polypropylene non-woven as the blank.

[1] = test system: Aspergillus niger (DSM 1957/ATCC 6275); experiment: Fungicidal activity, European Standard EN12175 spore suspension test; assay type: cell-based; conditions: test conc. 1%; for log reduction A. niger: vs water control
Method: (§4) Fungicidal activity is tested according to European Standard EN12175. A fungal spore suspension with a spore cell count of about 10^6 cfu/ml is contacted with appropriate concentrations of the specific substances (Examples) mentioned in the tables below and the residual spore cell count is determined after incubation times of 30 and 60 min at room temperature under continuous stirring. Penicillium funiculosum (DSM 1960), Aspergillus niger (DSM 1957/ATCC 6275) and Aureobasidium pullulans (DSM 2404) are tested as important mold strains. DSM refers to microorganisms obtainable under the numbers given at the DSMZ (Deutsche Sammlung von Mikroorganismen and Zellkulturen GmbH, Braunschweig, Germany). ATCC numbers refer to organisms obtainable from the American Type Culture Collection (see Example 6). The results are given as a log reduction at each incubation time in comparison to a water control in table (d): […]

[2] = test system: Penicillium funiculosum (DSM 1960); experiment: as above; assay type: cell-based; conditions: test conc. 1%; for log reduction P. funic.: vs water control
Method: as §4

[3] = test system: Aureobasidium pullulans (DSM 2404); experiment: as above; assay type: cell-based; conditions: test conc. 1%; for log reduction A. pull.: vs water control
Method: as §4

[4] = test system: Staphylococcus aureus cells; experiment: Antiadhesive efficacy on coated PMMA test specimen, antibody colorimetric assay; assay type: cell-based; conditions: specimen coated from 0.50% solution in EtOH; S. aureus suspension 1 hour at 30°
Method: The antiadhesive efficacy (inhibition of adhesion of microorganisms) is tested after temporarily attaching various compounds to PMMA test specimen by incubation of the test specimen in a 0.5% solution in ethanol. The coated specimen are then dried and afterwards incubated in a suspension of Staphylococcus aureus cells for 1 hour at 30° under shaking. After some washing steps, the attached cells are detected via binding of a primary antibody and—after incubation of night and again washing steps—binding of a secondary antibody with alkaline phosphatase attached. The adhesion is then determined in a colorimetric assay in comparison to an untreated PMMA test specimen, which is calculated as showing 100% adhesion.

[5] = test system: Staphylococcus aureus (ATCC 5638); experiment: Microbicidal activity, European Standard EN1040 suspension test; assay type: cell-based; conditions: for S. aureus cfu/mL (residual cell count): room temperature
Method: (§5) Microbicidal activity of different anionic siloxanes with carboxyl groups is tested according to European Standard EN1040. A bacterial suspension with a cell count of about 10^7 cfu/ml (cfu stands for colony-forming units) is contacted with appropriate concentrations of the specific substances and the residual cell count is determined after incubation times of 5 and 30 min. at room temperature under continuos stirring. Staphylococcus aureus (ATCC 5638, American Type Culture Collection, Manassas, USA) is tested as gram+ (gram positive) and Escherichia coli (ATCC 10535, American Type Culture Collection) as gram-organism. The results are given as a log reduction at each incubation time in comparison to a water control in the following tables (a) and (b): […]

[6] = test system: Escherichia coli (ATCC 10535); experiment: as above; assay type: cell-based; conditions: for E. coli cfu/mL (residual cell count): room temperature
Method: as §5

E. coli ATCC 10536 = experiment: Antibacterial efficacy on treated polypropylene non-woven, modified AATCC-100; assay type: cell-based, Escherichia coli
Method: as §1, §2, §3

[7] = 1% in EtOH (ethanolic stock solution), 5 min
[8] = 1% in EtOH (ethanolic stock solution), 30 min
[9] = 1% in H2O (stock solution in water), 5 min
[10] = 1% in H2O (stock solution in water), 30 min
[11] = test concentration 1%, 5 min, vs water control
[12] = test concentration 1%, 30 min, vs water control
[13] = test concentration 1000 ppm, 5 min
[14] = test concentration 1000 ppm, 30 min

C[Si]1(CCCC(CC(=O)O)C(=O)O)O[Si](C)(CCCC(CC(=O)O)C(=O)O)O[Si](C)(CCCC(CC(=O)O)C(=O)O)O[Si](C)(CCCC(CC(=O)O)C(=O)O)O1 (centres unmarked) [Example 1]
activity against S. aureus (in words) (S. aureus ATCC 6538; applied at 2%): full activity
activity against S. aureus (in words) (S. aureus ATCC 6538; non-woven treated with 1%): some but inconsistent activity
S. aureus cell count, 24 hours (S. aureus ATCC 6538; polypropylene nonwoven treated with 2% solution, 24 hours at 37° C.): <100 cfu/sample
A. niger cfu/mL (residual spore cell count) ([1]; 30 min): 1.1E+06 cfu/mL
log reduction A. niger ([1]; 30 min): <1
A. niger cfu/mL (residual spore cell count) ([1]; 1 h): 1.2E+06 cfu/mL
log reduction A. niger ([1]; 1 h): <1
P. funic. cfu/mL (residual spore cell count) ([2]; 30 min): 4.0E+06 cfu/mL
log reduction P. funic. ([2]; 30 min): <1
P. funic. cfu/mL (residual spore cell count) ([2]; 1 h): 3.8E+06 cfu/mL
log reduction P. funic. ([2]; 1 h): <1
A. pull. cfu/mL (residual spore cell count) ([3]; 30 min): 2.1E+05 cfu/mL
log reduction A. pull. ([3]; 30 min): <1
A. pull. cfu/mL (residual spore cell count) ([3]; 1 h): 2.2E+05 cfu/mL
log reduction A. pull. ([3]; 1 h): <1
results on PMMA (adhesion; untreated PMMA = 100% adhesion) [4]: 85%
S. aureus cfu/mL [5, 7]: 3.45E+06 cfu/mL
log reduction S. aureus [5, 7]: 1
S. aureus cfu/mL [5, 8]: 1.10E+04 cfu/mL
log reduction S. aureus [5, 8]: 3.3
S. aureus cfu/mL [5, 9]: 6.98E+06 cfu/mL and 8.19E+06 cfu/mL
log reduction S. aureus [5, 9]: <1
S. aureus cfu/mL [5, 10]: 9.55E+05 cfu/mL and 1.12E+06 cfu/mL
log reduction S. aureus [5, 10]: 1.3
S. aureus cfu/mL (residual cell count) ([5]; test concentration 1%, 5 min): 1.20E+04 cfu/mL
log reduction S. aureus [5, 11]: 3.1
S. aureus cfu/mL (residual cell count) ([5]; test concentration 1%, 30 min): 0.00E+00 cfu/mL
log reduction S. aureus [5, 12]: >5
E. coli cfu/mL [6, 7]: 1.37E+06 cfu/mL
log reduction E. coli [6, 7]: 1.2
E. coli cfu/mL [6, 8]: 0.00E+00 cfu/mL
log reduction E. coli [6, 8]: >5
E. coli cfu/mL [6, 9]: 4.62E+06 cfu/mL and 5.03E+06 cfu/mL
log reduction E. coli [6, 9]: <1
E. coli cfu/mL [6, 10]: 1.97E+06 cfu/mL and 2.09E+06 cfu/mL
log reduction E. coli [6, 10]: 1.1
E. coli cfu/mL (residual cell count) ([6]; test concentration 1%, 5 min): 0.00E+00 cfu/mL
log reduction E. coli [6, 11]: >5
E. coli cfu/mL (residual cell count) ([6]; test concentration 1%, 30 min): 0.00E+00 cfu/mL
log reduction E. coli [6, 12]: >5
activity against E. coli (in words) (E. coli ATCC 10536; applied at 2%): high activity
activity against E. coli (in words) (E. coli ATCC 10536; non-woven treated with 1%): no activity

C[Si]1(CCCP(=O)(O)O)O[Si](C)(CCCP(=O)(O)O)O[Si](C)(CCCP(=O)(O)O)O[Si](C)(CCCP(=O)(O)O)O1 (centres unmarked) [Example 2]
S. aureus cfu/mL [5, 13]: 1.42E+03 cfu/mL
log reduction S. aureus [5, 13]: 4.3
S. aureus cfu/mL [5, 14]: 0.00E+00 cfu/mL
log reduction S. aureus [5, 14]: >5
E. coli cfu/mL [6, 13]: 1.50E+04 cfu/mL
log reduction E. coli [6, 13]: 3.2
E. coli cfu/mL [6, 14]: 0.00E+00 cfu/mL
log reduction E. coli [6, 14]: >5

C[Si](C)(C)O[Si](C)(C)O[Si](C)(CCCC(CC(=O)O)C(=O)O)O[Si](C)(C)C (centres unmarked) [Example 4]
A. niger cfu/mL (residual spore cell count) ([1]; 30 min): 1.5E+04 cfu/mL
log reduction A. niger ([1]; 30 min): 2.0
A. niger cfu/mL (residual spore cell count) ([1]; 1 h): 1.3E+04 cfu/mL
log reduction A. niger ([1]; 1 h): 2.1
P. funic. cfu/mL (residual spore cell count) ([2]; 30 min): 4.8E+05 cfu/mL
log reduction P. funic. ([2]; 30 min): 1.0
P. funic. cfu/mL (residual spore cell count) ([2]; 1 h): 1.14E+05 cfu/mL
log reduction P. funic. ([2]; 1 h): 1.6
A. pull. cfu/mL (residual spore cell count) ([3]; 30 min): 1.3E+05 cfu/mL
log reduction A. pull. ([3]; 30 min): <1
A. pull. cfu/mL (residual spore cell count) ([3]; 1 h): 9.0E+04 cfu/mL
log reduction A. pull. ([3]; 1 h): <1
results on PMMA (adhesion; untreated PMMA = 100% adhesion) [4]: 46%
S. aureus cfu/mL (residual cell count) ([5]; test concentration 1%, 5 min): 3.22E+06 cfu/mL
log reduction S. aureus [5, 11]: <1
S. aureus cfu/mL (residual cell count) ([5]; test concentration 1%, 30 min): 1.67E+04 cfu/mL
log reduction S. aureus [5, 12]: 2.9
E. coli cfu/mL (residual cell count) ([6]; test concentration 1%, 5 min): 1.03E+05 cfu/mL
log reduction E. coli [6, 11]: 2.3
E. coli cfu/mL (residual cell count) ([6]; test concentration 1%, 30 min): 0.00E+00 cfu/mL
log reduction E. coli [6, 12]: >5

C[Si](C)(CCCC(CC(=O)O)C(=O)O)O[Si](C)(C)O[Si](C)(C)O[Si](C)(C)O[Si](C)(C)O[Si](C)(C)O[Si](C)(C)O[Si](C)(C)O[Si](C)(C)O[Si](C)(C)O[Si](C)(C)O[Si](C)(C)CCCC(CC(=O)O)C(=O)O (centres unmarked) [Example 5]
A. niger cfu/mL (residual spore cell count) ([1]; 30 min): 7.0E+05 cfu/mL
log reduction A. niger ([1]; 30 min): <1
A. niger cfu/mL (residual spore cell count) ([1]; 1 h): 6.0E+05 cfu/mL
log reduction A. niger ([1]; 1 h): <1
P. funic. cfu/mL (residual spore cell count) ([2]; 30 min): 2.5E+06 cfu/mL
log reduction P. funic. ([2]; 30 min): <1
P. funic. cfu/mL (residual spore cell count) ([2]; 1 h): 2.7E+06 cfu/mL
log reduction P. funic. ([2]; 1 h): <1
A. pull. cfu/mL (residual spore cell count) ([3]; 30 min): 3.5E+05 cfu/mL
log reduction A. pull. ([3]; 30 min): <1
A. pull. cfu/mL (residual spore cell count) ([3]; 1 h): 3.4E+05 cfu/mL
log reduction A. pull. ([3]; 1 h): <1
results on PMMA (adhesion; untreated PMMA = 100% adhesion) [4]: 50%
S. aureus cfu/mL (residual cell count) ([5]; test concentration 1%, 5 min): 1.34E+07 cfu/mL
log reduction S. aureus [5, 11]: <1
S. aureus cfu/mL (residual cell count) ([5]; test concentration 1%, 30 min): 7.86E+06 cfu/mL
log reduction S. aureus [5, 12]: <1
E. coli cfu/mL (residual cell count) ([6]; test concentration 1%, 5 min): 1.54E+07 cfu/mL
log reduction E. coli [6, 11]: <1
E. coli cfu/mL (residual cell count) ([6]; test concentration 1%, 30 min): 3.58E+06 cfu/mL
log reduction E. coli [6, 12]: <1
